What is called Ki is a dissociation constant, usually derived from enzyme kinetics or from competition with a known ligand. What is called IC50 is the midpoint of a concentration-inhibition curve.

The source of these data is paper PMC5906745, “Silencing of Chemosensory Protein Gene NlugCSP8 by RNAi Induces Declining Behavioral Responses of Nilaparvata lugens” (Frontiers in Physiology, 2018).

One experiment relates to NlugCSP7. Further details: method as in Yang et al., 2014. As to conditions: ref Yang et al., 2014; cited from earlier work.
The test system of experiment [1] is BPH. More on the design: method as in Obata et al., 1983. As to conditions: volatile isolated from rice plants; ref Obata et al., 1983; cited from earlier work.
The target of the next experiment is NlugCSP8 (Nilaparvata lugens, UniProt B7TVH4). Nature of the experiment: Fluorescence competitive ligand binding assay with 1-NPN probe. The protocol:
The recombinant pET-30a/CSP8 expression plasmid was transformed into Escherichia coli BL21 (DE3) competent cells. After DNA sequencing, a single positive clone was grown in 10 mL Luria-Bertani (LB) medium containing kanamycin (50 μg/mL) with shaking overnight at 220 rpm and 37°C. The culture was diluted to 2 L LB medium (supplemented with 50 μg/mL kanamycin) and grown at 37°C with shaking at 220 rpm until the culture reached the optical density value of ~0.6–0.7 at 600 nm. The recombinant protein expression was induced by the addition of 2 mM IPTG (Isopropyl β-D-1-thiogalactopyranoside), followed by culturing for 4 h at 37°C. The bacterial cells were harvested by centrifugation (10,000 rpm, 10 min) and sonicated. The expressed protein presented in the supernatant as a soluble form. Then, NlugCSP8 purification was performed using a Ni-ion affinity chromatography column (GE Healthcare, Uppsala, Sweden). His-tag was removed from the recombinant protein with the addition of recombinant bovine enterokinase (EK) in the eluted fractions of protein, followed by 16 h incubation at 25°C. After running the digested protein back through the Ni-ion affinity chromatography column, the tag-free protein was obtained in the flow through fraction. Protein expression and purification steps were assessed by 15% SDS-PAGE (sodium dodecyl sulfate-polyacrylamide gel electrophoresis). Finally, purified protein was dialyzed in Tris buffer (pH 5.0) and (pH 7.4). The concentration of purified protein was determined prior to perform ligand-binding specificities of NlugCSP8 with 25 selected ligands at pH 5.0 and pH 7.4.
Fluorescence-based ligand binding assays were performed based on the method described by Sun X. et al. ([2016]). According to previous studies about the rice-specific volatiles (Fujii et al., [2010]; He et al., [2011]; Yang et al., [2014]; Zhang et al., [2014]), 25 potential ligands were selected for the fluorescence binding assays (Table 1). All the ligands used in this study were purchased from Sigma-Aldrich (St. Louis, MO, USA) and stored according to manufacturer instructions. The ligand binding affinity for various ligands was determined by using the 1-NPN (N-phenyl-1-naphthylamine) as a fluorescent probe. RF-5301PC fluorimeter (Shimadzu, Kyoto, Japan) was used for fluorescence binding assay at 25°C with 10 nm slit width and 1 cm light path quartz cuvette for emission and excitation. The 1-NPN/NlugCSP8 mixture was excited using an excitation wavelength of 337 nm, and the fluorescence intensity was recorded between 350 and 600 nm following an established protocol (Ban et al., [2002]). The 1-NPN and all the potential ligands were prepared in spectrophotometric-grade methanol. The binding constant for 1-NPN was measured by adding aliquots of 1 mM 1-NPN into a 2 μM solution of protein in 30 mM Tris-HCL at room temperature. […] For each test, fluorescence measurement was conducted after the reaction was incubated for 2 min at room temperature (Liu et al., [2015]). Three independent measurements were used to obtain the binding data. 1-NPN/NlugCSP8 dissociation constants (Kd) were calculated from Scatchard plots of the binding data using the Prism 5 software (GraphPad, La Jolla, CA, USA). The curves were linearized using the Scatchard plot program (Campanacci et al., [2001]). The dissociation constants of the competitors were determined by using the corresponding IC50-values according to the equation Ki = [IC50]/ (1+[1-NPN]/K1−NPN), where IC50 represents the concentration of ligand which decreases the fluorescence intensity of [1-NPN], [1-NPN] is the free concentration of 1-NPN and K1−NPN is the dissociation constant of the NlugCSP8/1-NPN complex (Ban et al., [2003]; Tian and Zhang, [2016]). For the reader's convenience, data were recalculated as 1/ki × 1,000, for which a larger value designates a stronger ligand binding affinity.

Experiment [2] deals with Nilaparvata lugens. In words: H-tube olfactometer assay after RNAi (dsRNA-injected BPH). As to conditions: 10 μl/mL (nerolidol), 100 μl/mL (hexanal); compared with controls. It is filed as in vivo. The protocol:
BPH behavior responses to different ligands were tested in an H-tube olfactometer similar to which previously used by Yi et al. ([2018]) in our laboratory. The H-tube olfactometer mainly consists of two glass tubes (arms) with gauze at its top end. These two glass tubes were connected by another tube (5 cm in diameter, 20 cm long with a hole of 1 cm in the middle for releasing BPH). Twenty macropterous (10 from each sex) BPH adults were introduced into the H-tube and the number of BPH was counted at 30 min after their introduction. Liquid paraffin was used as in control arm. Rubber septa were absorbed in the liquid paraffin and solutions of the odor molecules to be tested (liquid paraffin+ different concentration of tested volatile) and placed at room temperature. After 24 h, one rubber septa from each control and tested volatile was put in each glass arm. After one replication, rubber septa were changed and three treatments (1, 10, and 100 μl/mL) of tested volatiles against macropterous adults were tested in eight replications. […] In order to evaluate the best RNAi effect, mRNA levels of NlugCSP8-dsRNA injected insects were determined and compared with the GFP-dsRNA-injected and non-injected insects, prior to H-tube olfactometer bioassay. […]

The test system of experiment [3] is Nilaparvata lugens. In words: H-tube olfactometer behavioral assay. It is filed as in vivo. As to conditions: macropterous adults, vs liquid paraffin. Here is the method:
BPH behavior responses to different ligands were tested in an H-tube olfactometer similar to which previously used by Yi et al. ([2018]) in our laboratory. The H-tube olfactometer mainly consists of two glass tubes (arms) with gauze at its top end. These two glass tubes were connected by another tube (5 cm in diameter, 20 cm long with a hole of 1 cm in the middle for releasing BPH). Twenty macropterous (10 from each sex) BPH adults were introduced into the H-tube and the number of BPH was counted at 30 min after their introduction. Liquid paraffin was used as in control arm. Rubber septa were absorbed in the liquid paraffin and solutions of the odor molecules to be tested (liquid paraffin+ different concentration of tested volatile) and placed at room temperature. After 24 h, one rubber septa from each control and tested volatile was put in each glass arm. After one replication, rubber septa were changed and three treatments (1, 10, and 100 μl/mL) of tested volatiles against macropterous adults were tested in eight replications. After four replications, the H-tube olfactometer was washed with 75% alcohol and the liquid paraffin rubber septa were placed in another arm to complete the other four replications. The impact of NlugCSP8-dsRNA on the preference of N. lugens was also tested by H-tube olfactometer assays. Corresponding control experiments without dsRNA injection were performed to investigate whether the preference of N. lugens was affected by volatile concentration change. Three treatments of BPH (NlugCSP8-dsRNA injected, GFP-dsRNA injected, and without injection) were tested in four replications. As in case of dsRNA injected insects, the concentration of volatiles that have highly significant attractive results on non-injected insects used for dsCSP8 and dsGFP injected insects. In order to evaluate the best RNAi effect, mRNA levels of NlugCSP8-dsRNA injected insects were determined and compared with the GFP-dsRNA-injected and non-injected insects, prior to H-tube olfactometer bioassay. Based on the findings of previous step, we re-inject the BPH and the individuals with the best post-injection RNAi effect after 7-days, were used in the H-tube olfactometer bioassay. Bioassays were performed under controlled conditions at 26 ± 2°C and 75 ± 5% relative humidity.

Experiment [4] relates to BPH. Further details: method as in Hernandez et al., 1989; Youn, 2002. As to conditions: BPH and some other Hemiptera; ref Hernandez et al., 1989; Youn, 2002; cited from earlier work.

The structures appear in SMILES notation. “Also recorded” adds a separate entry of the source. Where two headings read alike, the source gives them in different places.

NlugCSP8, sequence (B7TVH4 entry or part of it): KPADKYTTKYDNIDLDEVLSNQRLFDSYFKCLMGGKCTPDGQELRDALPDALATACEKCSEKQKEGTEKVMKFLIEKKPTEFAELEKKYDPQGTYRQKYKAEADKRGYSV

On to `CCCCCCCCCCCC(C)=O` [2-Tridecanone], for which, in the experiment with NlugCSP7, the “binding affinity with NlugCSP7” value is on record as “relatively weak binding affinity”. Besides, the “attraction of BPH” value in the experiment with BPH [1] was “able to attract BPH”. Moreover, the Ki at NlugCSP8 (pH 5.0, calculated from IC50, read-out: Ki) is 10.4 µM; on NlugCSP8 (pH 7.4, calculated from IC50, read-out: Ki), 12.5 µM. The IC50 stood at 12 µM on NlugCSP8 (pH 5.0, read-out: IC50) and 15 µM at NlugCSP8 (pH 7.4, read-out: IC50).
`CCCCCC=O` [Hexanal]: the “binding affinity with NlugCSP7” value in the experiment with NlugCSP7 was “weak affinities”. Moreover, the “behavior response of dsCSP8-injected (RNAi) BPH to attractant” value in the experiment on Nilaparvata lugens [2] was “reduced significantly; also recorded: significantly inhibited”. The figures for the “behavioral response of BPH” value in the experiment with Nilaparvata lugens [3] (1 μl/mL), in the experiment on Nilaparvata lugens [3] (10 μl/mL) and with Nilaparvata lugens [3] (100 μl/mL) were “repellency”, “attraction became weakened” and “strongly behaved as attractant”, respectively. The IC50 stood at 11 µM at NlugCSP8 (IC50, pH 5.0) and 17.3 µM at NlugCSP8 (IC50, pH 7.4). Further, the Ki on NlugCSP8 (Ki, pH 5.0, calculated from IC50) was 9.56 µM; on NlugCSP8 (Ki, pH 7.4, calculated from IC50), 14.4 µM. The Electroantennogram response result in the experiment with BPH [4] is “high Electroantennogram response”.
